In patent publication US10174035B2, “6-morpholinyl-2-pyrazolyl-9H-purine derivatives and their use as PI3K inhibitors” (Daiichi Sankyo Company, Limited, priority 2015, dated 2019) one finds IC50 data, which are given here for 13 compounds.

Structures are written as SMILES. pIC50: −log10 of the molar value. Where two headings read alike, the source gives them in different places.

Assay [1] concerns the target recombinant PI3K δ enzyme (Homo sapiens (Human), UniProt O00329). Put plainly: In vitro enzyme assay (Kinase-Glo luminescent kinase assay), PI3Kδ. The format is biochemical. The procedure, abridged: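 Each recombinant human PI3K isoform at 2.29 μg/mL with 60 μM PIP2 and 10 μM ATP in HEPES pH 7.4, NaCl, CHAPS, MgCl2, DTT, 2 hours at room temperature. Remaining ATP read by Kinase-Glo luminescence relative to no-enzyme blanks.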

Assay [2] concerns the target PI3Kα (Homo sapiens (Human), UniProt P42336). Description: In vitro enzyme assay (Kinase-Glo), selectivity, PI3Kα. It counts as biochemical. To be noted: enzyme 2.29 μg/mL; ATP 10 μM; PIP2 60 μM; 2 hours. As to the method:
(§1) The Kinase-Glo luminescent kinase assay kit (from Promega) was used to measure kinase activity. In this assay, amount of ATP remaining in solution following a kinase reaction is measured. The effect of compounds on PI3Kδ inhibition was carried out by adding 2.29 μg/ml of recombinant PI3K δ enzyme (Proteros, Germany) to reaction mixture containing assay buffer (50 mM HEPES, pH 7.4, 50 mM NaCl, 0.05% CHAPS) supplemented with 10 mM MgCl2, 5 mM DTT, 60 μM Phosphatidyl inositol bisphosphate (PIP2) and 10 μM ATP in the absence or presence of different concentrations of the compounds in a final volume of 15 μl/well, in a 384 well plate. The reaction mixture was incubated for 2 hours at room temperature. At the end of incubation period the equal volume of Kinase-Glo plus (Promega, V3772), was added per well and the luminescence was measured after incubating for 10 minutes at room temperature in dark. Results were calculated by measuring the luminescence units of test samples to blanks containing no enzyme.
(§2) The compounds of the present invention were tested for their selectivity for PI3Kδ over PI3Kα, PI3Kβ and PI3Kγ following the above assay using specific recombinant enzymes (Proteros, Germany) for each kinase. Assay condition of kinase assay (PI3Kα, PI3Kβ, PI3Kγ and PI3Kδ) was as follows. Enzyme: 2.29 μg/mL; ATP: 10 μM; PIP2 substrate: 60 μM and Reaction Time: 2 hours.
A general note: Kinase-Glo reads ATP consumption through a luciferase reaction.

Assay [3] concerns the target PI3Kβ (Homo sapiens (Human), UniProt P42338). Description: In vitro enzyme assay (Kinase-Glo), selectivity, PI3Kβ. The format is biochemical. The conditions noted are these: enzyme 2.29 μg/mL; ATP 10 μM; PIP2 60 μM; 2 hours. As to the method:
as §1, §2

Assay [4] addresses PI3Kγ (Homo sapiens (Human), UniProt P48736). Put plainly: In vitro enzyme assay (Kinase-Glo), selectivity, PI3Kγ. It counts as biochemical. To be noted: enzyme 2.29 μg/mL; ATP 10 μM; PIP2 60 μM; 2 hours. On the procedure: The Kinase-Glo luminescent kinase assay kit (from Promega) was used to measure kinase activity. In this assay, amount of ATP remaining in solution following a kinase reaction is measured. […] The reaction mixture was incubated for 2 hours at room temperature. At the end of incubation period the equal volume of Kinase-Glo plus (Promega, V3772), was added per well and the luminescence was measured after incubating for 10 minutes at room temperature in dark. Results were calculated by measuring the luminescence units of test samples to blanks containing no enzyme.
The compounds of the present invention were tested for their selectivity for PI3Kδ over PI3Kα, PI3Kβ and PI3Kγ following the above assay using specific recombinant enzymes (Proteros, Germany) for each kinase. Assay condition of kinase assay (PI3Kα, PI3Kβ, PI3Kγ and PI3Kδ) was as follows.

In assay [5] the test system is IFN-γ release in mouse splenocytes. Put plainly: Phytohaemagglutinin (PHA)-induced interferon (IFN)-gamma release in mouse splenocytes. The conditions noted are these: Splenocyte, PHA (10 μg/ml) for 48 hours, IFN-γ by ELISA, read-out: Cell Based IC50. Also on record: species or system C57BL/6 mouse. On the procedure: Effect of compounds on mitogen-induced IFN-γ release in mouse splenocytes was used to evaluate their potency in cell-based assay system [Blood (2010) 115: 2203-2213; Current Protocols in Immunology (2004) 3.12.1-3.12.20].
Mouse splenocytes were obtained from the spleen of a C57BL/6 mouse and plated at a density of 0.25 million cells/well in a 96 well tissue culture plate. The effect of the compounds to inhibit IFN-γ release was evaluated by treating the splenocytes with various concentrations of the test compounds followed by stimulation with PHA (10 μg/ml) for 48 hours. The IFN-γ release in the cell culture supernatant was quantified by ELISA as per the manufacturer's protocol (BD Biosciences, #555138).
On the technique in general: An ELISA detects its analyte on a solid surface through an enzyme-linked reagent.

[6] abbreviates: enzyme 2.29 μg/mL, ATP 10 μM, PIP2 60 μM, 2 hours.

PI3Kα, sequence (P42336 whole entry, species assumed): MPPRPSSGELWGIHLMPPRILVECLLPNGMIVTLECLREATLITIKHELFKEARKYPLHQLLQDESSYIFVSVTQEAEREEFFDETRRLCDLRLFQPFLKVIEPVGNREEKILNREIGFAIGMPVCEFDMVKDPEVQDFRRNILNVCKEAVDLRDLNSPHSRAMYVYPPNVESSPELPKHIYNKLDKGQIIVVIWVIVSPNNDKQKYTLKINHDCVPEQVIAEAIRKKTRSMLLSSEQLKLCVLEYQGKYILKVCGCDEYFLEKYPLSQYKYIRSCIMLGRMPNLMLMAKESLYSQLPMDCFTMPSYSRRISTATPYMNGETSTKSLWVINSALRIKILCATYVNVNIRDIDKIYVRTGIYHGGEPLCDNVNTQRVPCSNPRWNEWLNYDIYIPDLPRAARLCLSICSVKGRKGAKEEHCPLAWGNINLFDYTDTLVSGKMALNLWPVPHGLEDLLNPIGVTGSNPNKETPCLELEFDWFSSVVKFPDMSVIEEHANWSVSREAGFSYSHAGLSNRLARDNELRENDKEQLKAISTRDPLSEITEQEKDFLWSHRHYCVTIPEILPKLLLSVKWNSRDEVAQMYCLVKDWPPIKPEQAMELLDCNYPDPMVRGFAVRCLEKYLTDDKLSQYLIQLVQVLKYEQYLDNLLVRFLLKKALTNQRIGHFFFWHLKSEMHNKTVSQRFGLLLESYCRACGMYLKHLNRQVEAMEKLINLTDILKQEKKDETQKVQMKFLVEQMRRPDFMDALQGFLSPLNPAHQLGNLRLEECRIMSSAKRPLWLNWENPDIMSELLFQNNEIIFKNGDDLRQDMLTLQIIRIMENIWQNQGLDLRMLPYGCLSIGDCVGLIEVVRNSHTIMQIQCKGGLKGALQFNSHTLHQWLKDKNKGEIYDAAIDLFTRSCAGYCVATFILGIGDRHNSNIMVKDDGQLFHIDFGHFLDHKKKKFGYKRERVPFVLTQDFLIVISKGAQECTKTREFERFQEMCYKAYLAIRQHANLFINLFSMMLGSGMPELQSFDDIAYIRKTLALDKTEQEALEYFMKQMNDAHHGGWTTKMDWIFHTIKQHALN
PI3Kα, sequence (P27986 whole entry partner, species assumed): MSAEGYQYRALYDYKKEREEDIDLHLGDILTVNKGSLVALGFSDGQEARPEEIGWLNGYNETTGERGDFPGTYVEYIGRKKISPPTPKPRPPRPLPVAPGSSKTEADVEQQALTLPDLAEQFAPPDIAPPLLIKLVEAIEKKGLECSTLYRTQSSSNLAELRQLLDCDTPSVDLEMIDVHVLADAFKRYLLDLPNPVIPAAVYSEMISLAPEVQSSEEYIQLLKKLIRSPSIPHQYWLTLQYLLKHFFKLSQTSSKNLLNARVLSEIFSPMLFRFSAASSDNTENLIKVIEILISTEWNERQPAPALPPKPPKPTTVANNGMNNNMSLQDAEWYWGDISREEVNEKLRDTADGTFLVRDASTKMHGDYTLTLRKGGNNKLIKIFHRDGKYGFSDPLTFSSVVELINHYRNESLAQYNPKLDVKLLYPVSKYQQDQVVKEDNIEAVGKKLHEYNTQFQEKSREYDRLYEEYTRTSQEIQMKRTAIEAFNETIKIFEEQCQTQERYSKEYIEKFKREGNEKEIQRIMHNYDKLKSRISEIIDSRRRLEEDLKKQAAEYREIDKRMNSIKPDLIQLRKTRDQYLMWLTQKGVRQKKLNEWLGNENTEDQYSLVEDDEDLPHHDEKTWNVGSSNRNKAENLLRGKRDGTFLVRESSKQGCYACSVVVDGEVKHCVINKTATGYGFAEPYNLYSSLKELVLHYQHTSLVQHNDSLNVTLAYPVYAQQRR
PI3Kβ, sequence (P42338 whole entry, species assumed): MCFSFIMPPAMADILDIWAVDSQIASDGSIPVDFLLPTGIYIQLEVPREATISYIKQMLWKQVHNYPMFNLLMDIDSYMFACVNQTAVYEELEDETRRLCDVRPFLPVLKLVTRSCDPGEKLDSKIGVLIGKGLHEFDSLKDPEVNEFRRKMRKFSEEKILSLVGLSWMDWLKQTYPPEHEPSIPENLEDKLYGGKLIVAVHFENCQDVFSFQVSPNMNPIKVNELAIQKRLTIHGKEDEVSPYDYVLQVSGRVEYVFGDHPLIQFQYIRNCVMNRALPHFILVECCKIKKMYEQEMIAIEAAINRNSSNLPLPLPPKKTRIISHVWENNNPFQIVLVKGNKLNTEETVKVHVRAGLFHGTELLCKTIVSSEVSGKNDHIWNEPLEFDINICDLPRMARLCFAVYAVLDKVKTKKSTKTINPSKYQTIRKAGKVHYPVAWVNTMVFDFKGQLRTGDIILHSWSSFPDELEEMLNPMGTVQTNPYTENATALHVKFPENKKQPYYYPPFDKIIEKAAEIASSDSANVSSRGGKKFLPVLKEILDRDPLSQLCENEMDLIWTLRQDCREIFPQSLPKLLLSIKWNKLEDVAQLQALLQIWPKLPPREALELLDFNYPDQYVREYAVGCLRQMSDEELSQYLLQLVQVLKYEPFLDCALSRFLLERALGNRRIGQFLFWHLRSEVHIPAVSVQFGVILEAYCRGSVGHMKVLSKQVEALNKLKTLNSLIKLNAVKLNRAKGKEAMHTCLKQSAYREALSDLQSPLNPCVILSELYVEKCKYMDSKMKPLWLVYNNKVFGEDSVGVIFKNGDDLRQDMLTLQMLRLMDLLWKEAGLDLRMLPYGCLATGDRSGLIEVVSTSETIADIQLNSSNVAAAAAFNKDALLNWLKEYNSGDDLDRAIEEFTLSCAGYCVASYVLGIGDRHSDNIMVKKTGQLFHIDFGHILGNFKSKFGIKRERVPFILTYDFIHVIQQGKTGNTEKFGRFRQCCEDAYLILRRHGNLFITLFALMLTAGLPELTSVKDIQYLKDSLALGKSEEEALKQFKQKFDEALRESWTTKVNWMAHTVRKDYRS
PI3Kβ, sequence (P27986 whole entry partner, species assumed): as the sequence (P27986 whole entry partner, species assumed) above
PI3Kγ, sequence (P48736 whole entry, species assumed): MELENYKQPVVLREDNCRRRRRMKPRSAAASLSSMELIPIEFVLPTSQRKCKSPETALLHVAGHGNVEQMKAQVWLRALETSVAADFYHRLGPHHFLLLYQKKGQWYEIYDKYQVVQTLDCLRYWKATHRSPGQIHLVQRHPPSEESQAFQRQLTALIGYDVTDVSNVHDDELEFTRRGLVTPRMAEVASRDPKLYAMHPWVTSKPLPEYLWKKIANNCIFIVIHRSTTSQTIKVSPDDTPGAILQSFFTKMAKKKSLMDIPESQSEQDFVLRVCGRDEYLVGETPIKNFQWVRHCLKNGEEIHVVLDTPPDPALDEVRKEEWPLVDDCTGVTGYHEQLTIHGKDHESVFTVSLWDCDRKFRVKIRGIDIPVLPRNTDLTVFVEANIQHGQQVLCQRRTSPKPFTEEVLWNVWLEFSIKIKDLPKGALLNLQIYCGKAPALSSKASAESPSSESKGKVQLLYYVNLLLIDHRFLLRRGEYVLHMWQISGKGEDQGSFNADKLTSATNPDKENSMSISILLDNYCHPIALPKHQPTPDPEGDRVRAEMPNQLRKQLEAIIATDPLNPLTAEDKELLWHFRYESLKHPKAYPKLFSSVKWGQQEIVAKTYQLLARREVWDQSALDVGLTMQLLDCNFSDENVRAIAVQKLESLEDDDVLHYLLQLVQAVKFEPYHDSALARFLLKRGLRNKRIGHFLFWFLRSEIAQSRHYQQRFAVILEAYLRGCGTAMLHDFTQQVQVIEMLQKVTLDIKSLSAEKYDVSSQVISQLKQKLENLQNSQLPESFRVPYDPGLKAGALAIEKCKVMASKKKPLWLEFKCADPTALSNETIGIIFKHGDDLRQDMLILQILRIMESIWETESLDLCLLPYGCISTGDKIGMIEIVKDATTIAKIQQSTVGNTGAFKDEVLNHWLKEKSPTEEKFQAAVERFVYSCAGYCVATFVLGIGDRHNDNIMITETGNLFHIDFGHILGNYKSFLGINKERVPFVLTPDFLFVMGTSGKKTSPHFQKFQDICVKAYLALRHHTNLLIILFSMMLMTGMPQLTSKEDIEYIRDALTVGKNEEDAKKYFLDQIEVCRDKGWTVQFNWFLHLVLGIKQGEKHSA
recombinant PI3K δ enzyme, sequence (O00329 whole entry, species assumed, canonical isoform): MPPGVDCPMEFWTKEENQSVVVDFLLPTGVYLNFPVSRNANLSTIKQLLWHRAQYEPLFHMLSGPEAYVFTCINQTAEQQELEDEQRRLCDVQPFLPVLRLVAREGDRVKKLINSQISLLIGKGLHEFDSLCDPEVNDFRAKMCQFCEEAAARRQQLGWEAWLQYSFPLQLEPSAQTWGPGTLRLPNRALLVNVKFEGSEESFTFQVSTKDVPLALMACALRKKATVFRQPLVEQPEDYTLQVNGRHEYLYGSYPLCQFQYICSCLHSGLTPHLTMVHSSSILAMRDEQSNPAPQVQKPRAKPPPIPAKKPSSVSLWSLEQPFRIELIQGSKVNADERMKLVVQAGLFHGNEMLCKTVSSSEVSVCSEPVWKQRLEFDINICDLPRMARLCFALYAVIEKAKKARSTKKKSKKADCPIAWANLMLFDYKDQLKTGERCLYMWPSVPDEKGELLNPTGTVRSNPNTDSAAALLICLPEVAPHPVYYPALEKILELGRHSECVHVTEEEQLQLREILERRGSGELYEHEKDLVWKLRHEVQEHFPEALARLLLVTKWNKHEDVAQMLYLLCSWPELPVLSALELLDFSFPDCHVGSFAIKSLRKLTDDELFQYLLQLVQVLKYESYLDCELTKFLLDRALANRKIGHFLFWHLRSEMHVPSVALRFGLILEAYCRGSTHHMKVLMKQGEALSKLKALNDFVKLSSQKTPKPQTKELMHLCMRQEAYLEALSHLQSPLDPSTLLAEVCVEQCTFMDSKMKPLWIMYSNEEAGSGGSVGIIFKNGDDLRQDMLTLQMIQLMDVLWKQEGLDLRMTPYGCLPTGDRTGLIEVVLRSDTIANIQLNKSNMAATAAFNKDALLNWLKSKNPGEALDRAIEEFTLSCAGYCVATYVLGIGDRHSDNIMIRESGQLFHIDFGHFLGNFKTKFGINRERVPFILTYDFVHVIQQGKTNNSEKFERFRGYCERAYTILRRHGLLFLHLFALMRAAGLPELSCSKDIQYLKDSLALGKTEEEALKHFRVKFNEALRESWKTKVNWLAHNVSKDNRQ
recombinant PI3K δ enzyme, sequence (P27986 whole entry partner, species assumed, canonical isoform): as the sequence (P27986 whole entry partner, species assumed) above

Consider `Cn1cc(-c2nc(N3CCOCC3)c3nc(C(=O)N4CCC(C(C)(C)O)CC4)[nH]c3n2)cn1` [compound 14, [4-(2-Hydroxypropan-2-yl)piperidin-1-yl][2-(1-methyl-1H-pyrazol-4-yl)-6-(morpholin-4-yl)-9H-purin-8-yl]methanone], for which the negative logarithm of the IC50 (pIC50) in assay [1] was 7.80; in assay [1] (setting [6]) it was 7.80; in assay [2], less than 6.00; in assay [3], less than 5.00; in assay [4], 6.23; in assay [5] it was 6.09.
`O=C(c1nc2c(N3CCOCC3)nc(-c3c[nH]nc3C(F)(F)F)nc2[nH]1)N1CCC(N2CCOCC2)CC1` [compound 19, [4-(Morpholin-4-yl)piperidin-1-yl]{6-(morpholin-4-yl)-2-[3-(trifluoromethyl)-1H-pyrazol-4-yl]-9H-purin-8-yl}methanone]: the pIC50 in assay [1] is 7.89; in assay [1] (setting [6]), 7.89; in assay [2] it was 5.39; in assay [3], less than 5.00; in assay [4] it was 5.25; in assay [5] it was 6.72.
For `Cc1nn(C)cc1-c1nc(N2CCOCC2)c2nc(C(=O)N3CCC(N4CCOCC4)CC3)[nH]c2n1` [compound 41, [2-(1,3-Dimethyl-1H-pyrazol-4-yl)-6-(morpholin-4-yl)-9H-purin-8-yl][4-(morpholin-4-yl)piperidin-1-yl]methanone], the negative logarithm of the IC50 (pIC50) in assay [1] was 7.85; in assay [1] (setting [6]), 7.85; in assay [2], 5.05; in assay [3], less than 5.00; in assay [4], 5.68; in assay [5] it was 6.65.
For `CN1CCCC1CCNC(=O)c1nc2c(N3CCOCC3)nc(-c3cnn(C)c3)nc2[nH]1` (centres unmarked) [compound 64, 2-(1-Methyl-1H-pyrazol-4-yl)-N-{2-[1-methylpyrrolidin-2-yl]ethyl}-6-(morpholin-4-yl)-9H-purine-8-carboxamide], the pIC50 is 7.77 in assay [1]; 7.77 in assay [1] (setting [6]); 6.01 in assay [2]; less than 5.00 in assay [3]; 5.21 in assay [4]; 6.95 in assay [5].
Regarding `Cn1cc(-c2nc(N3CCOCC3)c3nc(C(=O)NCCCN4CCOCC4)n(C)c3n2)cn1` [compound 67, 9-Methyl-2-(1-methyl-1H-pyrazol-4-yl)-6-(morpholin-4-yl)-N-[3-(morpholin-4-yl)propyl]-9H-purine-8-carboxamide], the negative logarithm of the IC50 (pIC50) in assay [1] is 7.96; in assay [1] (setting [6]) it was 7.96; in assay [2], less than 6.00; in assay [3], less than 5.00; in assay [4], less than 6.00; in assay [5], 7.57.
For `Cn1cc(-c2nc(N3CCOCC3)c3nc(C(=O)NCCCN4CCCC4=O)[nH]c3n2)cn1` [compound 68, 2-(1-Methyl-1H-pyrazol-4-yl)-6-(morpholin-4-yl)-N-[3-(2-oxopyrrolidin-1-yl)propyl]-9H-purine-8-carboxamide], the pIC50 in assay [1] was 7.77; in assay [1] (setting [6]), 7.77; in assay [2] it was less than 6.00; in assay [3], less than 5.00; in assay [4], less than 6.00; in assay [5] it was 6.53.
For `O=C(c1nc2c(N3CCOCC3)nc(-c3cn[nH]c3)nc2[nH]1)N1CCC2(CC1)COC2` [compound 72, [6-(Morpholin-4-yl)-2-(1H-pyrazol-4-yl)-9H-purin-8-yl](2-oxa-7-azaspiro[3.5]non-7-yl)methanone], the negative-log IC50 (pIC50) in assay [1] was 7.74; in assay [1] (setting [6]), 7.74; in assay [2], less than 6.00; in assay [3], less than 5.00; in assay [4], less than 6.00; in assay [5], 6.48.
As for `C[C@@H]1CN(CCCNC(=O)c2nc3c(N4CCOCC4)nc(-c4cnn(C)c4)nc3[nH]2)C[C@H](C)O1` [compound 75, N-{3-[cis-2,6-dimethylmorpholin-4-yl]propyl}-2-(1-methyl-1H-pyrazol-4-yl)-6-(morpholin-4-yl)-9H-purine-8-carboxamide], the negative-log IC50 (pIC50) in assay [1] is 7.74; in assay [2] it was less than 6.00; in assay [3] it was less than 5.00; in assay [4] it was less than 6.00; in assay [5], 7.08.
Take `Cn1cc(-c2nc3[nH]c(C(=O)N4CCC5(CC4)COC5)nc3c(N3CCOCC3)c2F)cn1` [compound 79, [6-Fluoro-5-(1-methyl-1H-pyrazol-4-yl)-7-(morpholin-4-yl)-3H-imidazo[4,5-b]pyridin-2-yl](2-oxa-7-azaspiro[3.5]non-7-yl)methanone]: the pIC50 in assay [1] was 7.70; in assay [1] (setting [6]) it was 7.70; in assay [2] it was less than 6.00; in assay [3] it was less than 5.00; in assay [4], less than 6.00; in assay [5] it was 7.89.
`Cn1cc(-c2nc3[nH]c(C(=O)N4CCN(C(C)(C)C(N)=O)CC4)nc3c(N3CCOCC3)c2F)cn1` [compound 82, 2-(4-{[6-Fluoro-5-(1-methyl-1H-pyrazol-4-yl)-7-(morpholin-4-yl)-3H-imidazo[4,5-b]pyridin-2-yl]carbonyl}piperazin-1-yl)-2-methylpropanamide]: the pIC50 in assay [1] is 7.96; in assay [1] (setting [6]), 7.96; in assay [2], less than 6.00; in assay [3], less than 5.00; in assay [4] it was less than 6.00; in assay [5], 6.46.
Regarding `Cc1nn(C)cc1-c1nc2[nH]c(C(=O)N3CCC(C(N)=O)CC3)nc2c(N2CCOCC2)c1F` [compound 85, 1-{[5-(1,3-Dimethyl-1H-pyrazol-4-yl)-6-fluoro-7-(morpholin-4-yl)-3H-imidazo[4,5-b]pyridin-2-yl]carbonyl}piperidine-4-carboxamide], the negative-log IC50 (pIC50) in assay [1] is 7.72; in assay [1] (setting [6]), 7.72; in assay [2] it was less than 6.00; in assay [3] it was less than 5.00; in assay [4], less than 6.00; in assay [5], 5.90.
In the case of `Cc1nn(C)cc1-c1nc2[nH]c(C(=O)N3CCC(O)CC3)nc2c(N2CCOCC2)c1F` [compound 86, [5-(1,3-Dimethyl-1H-pyrazol-4-yl)-6-fluoro-7-(morpholin-4-yl)-3H-imidazo[4,5-b]pyridin-2-yl](4-hydroxypiperidin-1-yl)methanone], the pIC50 in assay [1] was 7.57; in assay [1] (setting [6]), 7.57; in assay [2], less than 6.00; in assay [3], less than 5.00; in assay [4] it was 5.07; in assay [5], 6.65.
In the case of `Cn1cc(-c2nc3[nH]c(C(=O)N4CCC(N5CCOCC5)CC4)nc3c(N3CCOCC3)c2F)cn1` [compound 98, [6-Fluoro-5-(1-methyl-1H-pyrazol-4-yl)-7-(morpholin-4-yl)-3H-imidazo[4,5-b]pyridin-2-yl][4-(morpholin-4-yl)piperidin-1-yl]methanone], the pIC50 was 8.22 in assay [1]; 8.22 in assay [1] (setting [6]); less than 5.00 in assay [2]; less than 5.00 in assay [3]; less than 5.00 in assay [4]; 7.37 in assay [5].

For orientation: pIC50 means the negative decadic logarithm of the IC50, by convention in mol/L.
